This note sets out measurements from ChEMBL document CHEMBL1151909, “Mechanism of action of N-phenyl-N'-(2-chloroethyl)ureas in the colchicine-binding site at the interface between alpha- and beta-tubulin” (2009).

The subject of the assay is HT-29. Put plainly: Antiproliferative activity against human HT-29 cells after 48 hrs by SRB assay. As to conditions: HT-29, 48 h. The class given is functional. Background: In SRB staining, fixed cells bind dye roughly in proportion to their protein.
For the molecule `CCCCCc1cccc(NC(=O)NCCCl)c1`, the GI50 is 620 nM.
Molecule `COCCCCCc1cccc(NC(=O)NCCCl)c1` registered a GI50 of 840 nM.
As to `COc1ccc(CCc2cccc(NC(=O)NCCCl)c2)cc1O`, halving of growth (GI50) required 9600 nM.
Molecule `COc1ccc(/C=C\c2ccc(NC(=O)NCCCl)cc2)cc1O` yielded a concentration for 50% growth inhibition (GI50) of 2400 nM.
Turning to `CC(=O)CCCCc1cccc(NC(=O)NCCCl)c1`, the GI50 amounted to 600 nM.
The molecule `O=C(NCCCl)Nc1cccc(CCCCCO)c1` came in with a GI50 of 160 nM.
Turning to `O=C(NCCCl)Nc1cccc(CCCCCCO)c1`, growth was halved (GI50) at 300 nM.
In turn, `O=C(NCCCl)Nc1cccc(CCCCO)c1` came in with a GI50 of 710 nM.

What is called GI50 is the concentration at which growth is held to half of that of the control. Higher therefore signals lower sensitivity of the cells.
